According to PubChem BioAssay (NCI):
Where “and” joins values, the source holds several entries; their conditions need not be identical. Equal entries are not always repeated.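 Each compound was tested at five concentrations against cells in 96-well plates for 48 hours. Here, GI50 denotes the concentration required for 50% inhibition of growth. The concentration for full growth arrest is given as TGI.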

How the values were obtained:
Assay in all cases: growth of human tumour cells (NCI), 48 h
BT-549 breast = test system: BT-549 breast
HS 578T breast = test system: HS 578T breast
MDA-N = test system: MDA-N
DLD-1 colon = test system: DLD-1 colon
DMS 114 small cell lung = test system: DMS 114 small cell lung
KM20L2 colon = test system: KM20L2 colon
RXF-631 renal = test system: RXF-631 renal
SNB-78 CNS = test system: SNB-78 CNS
XF 498 CNS = test system: XF 498 CNS

Work on `C[C@@H](NC(=O)Cc1cc(F)cc(F)c1)C(=O)N[C@@]1(C)N=C(c2ccccc2)c2ccccc2N(C)C1=O` yielded a GI50 (BT-549 breast) of 9.6 µM, a TGI (BT-549 breast) of over 66.4 µM and a GI50 (HS 578T breast) of 24.7 µM. It also gave a TGI (HS 578T breast) of over 100 µM.

Work on `O=C1c2ccccc2-c2cc3ccccc3c(=O)n21` yielded a TGI (HS 578T breast) of over 100 µM and a TGI (MDA-N) of over 100 µM.

`COC(=O)[C@H](Cc1ccccc1)NC(=O)c1csc([C@@H](C[C@H](C(C)C)N(C)C(=O)[C@@H](NC(=O)[C@H]2CCCCN2C)C2CC2)OC(C)=O)n1` showed a GI50 (BT-549 breast) of 0.0349 µM, a TGI (BT-549 breast) of 0.556 µM and a GI50 (HS 578T breast) of 0.0245 µM. The TGI (HS 578T breast) was 14.5 µM.

Work on `CCN(CC)CCC(=O)Nc1ccc(Cn2nnc3c2C(=O)c2nnn(Cc4ccc(NC(=O)CCN(CC)CC)cc4)c2C3=O)cc1` yielded a GI50 (BT-549 breast) of 1.64 µM, a TGI (BT-549 breast) of 3.06 µM and a GI50 (HS 578T breast) of 2.34 µM. It also gave a TGI (HS 578T breast) of 8.84 µM.

`COc1ccc(C[C@H]2C[C@@H](O)[C@@H](C)C/C=C/Cc3cccc(O)c3C(=O)O2)cn1` showed a GI50 (BT-549 breast) of 20.7 µM, a TGI (BT-549 breast) of 48.8 µM and a GI50 (HS 578T breast) of 14.4 µM. It also gave a TGI (HS 578T breast) of 36.7 µM.

`CO[C@H]1C=C[C@]23c4cc5c(cc4CN(CC2O)[C@@H]3C1)OCO5` (some centres not stated) was tested, and the TGI (BT-549 breast) was 13.7 µM, the TGI (HS 578T breast) was 81.9 µM and the TGI (MDA-N) was 64.8 µM.

For `COc1ccc2c(c1O)[C@@]13C=C(O)C(=O)C=C1[C@@H](C2)N(C)CC3`, the TGI (BT-549 breast) was over 100 µM, the TGI (HS 578T breast) was over 100 µM and the TGI (MDA-N) was over 100 µM.

In the case of `Cc1nnc2n1N=C(CC(=O)c1ccc(O)cc1O)CN2N`, the TGI (DLD-1 colon) is reported as over 100 µM, the TGI (DMS 114 small cell lung) is reported as 40 µM and the TGI (KM20L2 colon) is reported as over 100 µM. The TGI (RXF-631 renal) was over 100 µM and the TGI (SNB-78 CNS) was over 100 µM.

With `S=C(Nc1ccccc1)Nc1[nH]c(=S)sc1-c1nc2ccccc2[nH]1` the TGI (DLD-1 colon) was over 100 µM, the TGI (RXF-631 renal) was over 100 µM and the TGI (SNB-78 CNS) was over 100 µM.

Work on `CC1Cc2c(N(C)C)ncnc2N(C)c2ccc(Cl)cc21` (configuration not stated) yielded a GI50 (BT-549 breast) of 6.63 µM, a TGI (BT-549 breast) of 32.1 µM and a GI50 (HS 578T breast) of 3.08 µM. It also gave a TGI (HS 578T breast) of over 100 µM.

In the case of `Cn1c(=O)n(-c2ccc(C(C)(C)C#N)cc2)c2c3cc(-c4cnc5ccccc5c4)ccc3ncc21`, the GI50 (BT-549 breast) is reported as 0.00493 µM and < 0.01 µM, the GI50 (HS 578T breast) is reported as < 0.01 µM and 0.00204 µM and the TGI (HS 578T breast) is reported as 0.0195 µM and 0.00587 µM.

Work on `O=C1OC(c2ccc(O)cc2)(c2ccc(O)cc2)c2cccc3cccc1c23` yielded a GI50 (BT-549 breast) of 1.26 µM, a TGI (BT-549 breast) of 4.01 µM and a GI50 (HS 578T breast) of 0.249 µM. It also gave a TGI (HS 578T breast) of 20.9 µM.

Work on `Cc1ccc(NCSc2ccc(Cl)cc2)cc1` yielded a GI50 (BT-549 breast) of 6.43 µM, a TGI (BT-549 breast) of over 100 µM and a GI50 (HS 578T breast) of 24.7 µM. For the same compound, the TGI (HS 578T breast) was over 100 µM.

Work on `CC[C@@]1(OC(=O)CN)C(=O)OCc2c1cc1n(c2=O)Cc2cc3cc(N)ccc3nc2-1` yielded a GI50 (BT-549 breast) of 1.3 µM, a TGI (BT-549 breast) of over 100 µM and a GI50 (HS 578T breast) of 1.97 µM. For the same compound, the TGI (HS 578T breast) was over 100 µM, the GI50 (MDA-N) was 0.0772 µM and the TGI (MDA-N) was 1.09 µM.

With `CCCC/C(=N\N=C(N)N)c1ccc(F)cc1` the GI50 (BT-549 breast) was 3.48 µM, the TGI (BT-549 breast) was 12.5 µM and the GI50 (HS 578T breast) was 2.88 µM. For the same compound, the TGI (HS 578T breast) was 8.81 µM.

`CC[C@]12C=CCN3CC[C@]4(C(=C(C(=O)OC)C1)Nc1cc(O)ccc14)[C@@H]32` showed a GI50 (BT-549 breast) of 20.6 µM, a TGI (BT-549 breast) of 41.9 µM and a GI50 (HS 578T breast) of 15.5 µM. For the same compound, the TGI (HS 578T breast) was 58.1 µM.

`O=C1[C@H]2C(c3ccccc3)=NN(C(=O)c3ccccc3)[C@H]2C(=O)N1c1ccccc1` gave a TGI (DLD-1 colon) of over 100 µM and a TGI (DMS 114 small cell lung) of over 100 µM.

In the case of `O=C(/C=C/N1CCN(c2cccc(C(F)(F)F)c2)CC1)c1ccc(Cl)cc1Cl`, the GI50 (BT-549 breast) is reported as 20.5 µM, the TGI (BT-549 breast) is reported as 40.3 µM and the GI50 (HS 578T breast) is reported as 27.5 µM. The TGI (HS 578T breast) was 63.8 µM.

`COC(=O)c1cc(Nc2ccc(O)c3c2C(=O)c2c([N+](=O)[O-])ccc(O)c2C3=O)cc(C(=O)OC)c1` gave a GI50 (BT-549 breast) of 13.7 µM, a TGI (BT-549 breast) of over 100 µM and a GI50 (HS 578T breast) of 3.77 µM. For the same compound, the TGI (HS 578T breast) was over 100 µM.

`CC(C)(C)n1cc(-c2ccnc(NCCNS(=O)(=O)c3ccc(Br)cc3)c2)c(-c2cccc(O)c2)n1` gave a GI50 (BT-549 breast) of 1.64 µM and a TGI (BT-549 breast) of 3.2 µM.

`CCOC(=O)c1cnc2[nH]c(=O)c3ccccc3n2c1=O` gave a TGI (DLD-1 colon) of over 100 µM, a TGI (KM20L2 colon) of over 100 µM and a TGI (RXF-631 renal) of over 100 µM. The TGI (SNB-78 CNS) was over 100 µM and the TGI (XF 498 CNS) was over 100 µM.

For `O=C1OCC(C(=O)c2cccc(O)c2)C1=O` (configuration not stated), the TGI (DLD-1 colon) was over 100 µM, the TGI (DMS 114 small cell lung) was over 100 µM and the TGI (KM20L2 colon) was over 100 µM. For the same compound, the TGI (RXF-631 renal) was over 100 µM and the TGI (SNB-78 CNS) was over 100 µM.

Work on `COc1cc2ccn3c4cc(OC)c(OC)cc4cc3c2cc1OC` yielded a TGI (DLD-1 colon) of over 100 µM, a TGI (DMS 114 small cell lung) of over 100 µM and a TGI (KM20L2 colon) of over 100 µM. The TGI (SNB-78 CNS) was over 100 µM and the TGI (XF 498 CNS) was over 100 µM.

For `CC(CC(=O)O)(CC(=O)O)C(=O)O`, the TGI (BT-549 breast) was over 100 µM, the TGI (HS 578T breast) was over 100 µM and the TGI (MDA-N) was over 100 µM.

Compound `O=C(CCCCCCCCC(=O)OCC1OC(n2cnc3c(=O)[nH]cnc32)C(O)C1O)OCC1OC(n2cnc3c(=O)[nH]cnc32)C(O)C1O` (configuration not stated) has a TGI (DLD-1 colon) of over 100 µM, a TGI (DMS 114 small cell lung) of over 100 µM and a TGI (KM20L2 colon) of over 100 µM. It also gave a TGI (SNB-78 CNS) of over 100 µM and a TGI (XF 498 CNS) of over 100 µM.

With `CN1C(=O)c2cc(Cl)nc3c(NC(=O)c4cccc(Cl)c4)c(Cl)c(NC(=O)c4cccc(Cl)c4)c1c23` the GI50 (BT-549 breast) was 1.64 µM, the TGI (BT-549 breast) was 3.19 µM and the GI50 (HS 578T breast) was 2.48 µM. The TGI (HS 578T breast) was 7.16 µM.

For `CCOP(=O)(OCC)/C(C#N)=C\c1cccc2ccccc12`, the TGI (BT-549 breast) was over 100 µM, the TGI (HS 578T breast) was 57.7 µM and the TGI (KM20L2 colon) was over 100 µM. It also gave a TGI (MDA-N) of over 100 µM and a TGI (SNB-78 CNS) of over 100 µM.

In the case of `CC1=C(C#N)C(N)=C2C(C)=C(C#N)C(N)=C12`, the TGI (DLD-1 colon) is reported as over 100 µM, the TGI (DMS 114 small cell lung) is reported as over 100 µM and the TGI (KM20L2 colon) is reported as over 100 µM. It also gave a TGI (SNB-78 CNS) of over 100 µM and a TGI (XF 498 CNS) of over 100 µM.

Work on `COc1ccccc1Cn1cc2c(c1)-c1oncc1CC2` yielded a GI50 (BT-549 breast) of 7.5 µM, a TGI (BT-549 breast) of over 100 µM and a GI50 (HS 578T breast) of 0.384 µM. For the same compound, the TGI (HS 578T breast) was 3.03 µM.

In the case of `COC(=O)/C(C#N)=C1\N=NNN1CCCN1CCOCC1`, the TGI (DLD-1 colon) is reported as over 100 µM, the TGI (DMS 114 small cell lung) is reported as over 100 µM and the TGI (SNB-78 CNS) is reported as over 100 µM.

Work on `Cc1ccc([P+](Cc2ccc([N+](=O)[O-])cc2)(c2ccc(C)cc2)c2ccc(C)cc2)cc1` yielded a GI50 (BT-549 breast) of 2.68 µM, a TGI (BT-549 breast) of 8.87 µM and a GI50 (HS 578T breast) of 3.46 µM. For the same compound, the TGI (HS 578T breast) was 17.7 µM.

Compound `CC(C)OP(=O)(CP(=O)(OC(C)C)OC(C)C)OC(C)C.[CH3][Sn]([Br])([Br])[Br]` has a GI50 (DLD-1 colon) of over 100 µM, a TGI (DLD-1 colon) of over 100 µM and a GI50 (DMS 114 small cell lung) of over 100 µM. For the same compound, the TGI (DMS 114 small cell lung) was over 100 µM, the GI50 (KM20L2 colon) was over 100 µM and the TGI (KM20L2 colon) was over 100 µM. The GI50 (RXF-631 renal) was over 100 µM, the TGI (RXF-631 renal) was over 100 µM and the GI50 (SNB-78 CNS) was over 100 µM. The TGI (SNB-78 CNS) was over 100 µM.

`COc1cc2c3c(c1OC)-c1ccccc1C(C(OC(C)=O)c1ccccc1)C3N(C)CC2` (configuration not stated) showed a TGI (DLD-1 colon) of 91 µM, a TGI (DMS 114 small cell lung) of over 100 µM and a TGI (KM20L2 colon) of over 100 µM. For the same compound, the TGI (SNB-78 CNS) was over 100 µM.

In the case of `CC(CS(=O)(=O)Cc1ccccc1)C(N)=O` (configuration not stated), the TGI (BT-549 breast) is reported as over 100 µM, the TGI (HS 578T breast) is reported as over 100 µM and the TGI (MDA-N) is reported as over 100 µM.

For `COc1cccc(-c2nn(-c3ccccc3)cc2-c2ccnc(NCCNC(=O)Nc3ccc(Cl)c(Cl)c3)c2)c1`, the GI50 (BT-549 breast) was 2.94 µM, the TGI (BT-549 breast) was 10.4 µM and the GI50 (HS 578T breast) was 1.96 µM. It also gave a TGI (HS 578T breast) of 5.19 µM.
